Laboratory results: BigSolDB 2.1

COc1cc2nccc(Oc3ccc(NC(=O)C4(C(=O)Nc5ccc(F)cc5)CC4)cc3)c2cc1OC.O=C(O)C[C@H](O)C(=O)O
solubility (mole fraction)
Details | 298.2 K | 303.2 K | 308.2 K | 313.2 K | 318.2 K
in DMSO | 0.0332 | 0.0353 | 0.0376 | 0.0404 | 0.0435
in ethanol | 0.000391 | 0.000507 | 0.000724 | 0.000977 | 0.00127
in ethyl acetate | 8.8e-05 | 0.000135 | 0.000187 | 0.000277 | 0.000415
in ethylene glycol | 0.000426 | 0.000605 | 0.000839 | 0.00109 | 0.00138
in isopropanol | 0.000529 | 0.00068 | 0.000944 | 0.0013 | 0.00169
in methanol | 0.000169 | 0.000262 | 0.000372 | 0.000503 | 0.000705
in n-butanol | 0.000675 | 0.000932 | 0.00128 | 0.00166 | 0.00215
in propylene glycol | 0.000715 | 0.00098 | 0.00131 | 0.00179 | 0.00238
in sec-butanol | 0.000687 | 0.000943 | 0.00135 | 0.00173 | 0.00221
in transcutol | 0.00179 | 0.00231 | 0.00315 | 0.0042 | 0.00545
in water | 2.27e-07 | 3.4e-07 | 4.82e-07 | 6.52e-07 | 8.5e-07

Details | solubility (mole fraction)
in PEG-400, 298.2 K | 0.00354
in PEG-400, 303.2 K | 0.00538
in PEG-400, 308.2 K | 0.00749
in PEG-400, 313.2 K | 0.0105
in PEG-400, 318.2 K | 0.0142
